Test results published in patent US20140302568A1, “POLYOL OXIDASE” (NATIONAL UNIVERSITY CORPORATION KAGAWA UNIVERSITY, priority 2011, published 2014).

What was measured:
[1] = tested on: polyol oxidase derived from Penicillium sp. KU-1; experiment: Substrate specificity of the partially purified polyol oxidase (peroxidase method); type: biochemical; settings: for Relative activity (%): substrate specificity, partially purified enzyme, relative to D-arabitol = 100
Description: As the measurement method for the oxidase activity, a peroxidase method was used. When a D-glucose oxidase is taken as an example, the principle of the peroxidase method is as follows.
In this method, the activity is measured by colorimetric determination of hydrogen peroxide generated by an oxidation reaction. When hydrogen peroxide generated by an oxidation reaction with a substrate is reacted with a peroxidase, an oxidation reaction of ABTS is catalyzed to generate oxidized ABTS. The oxidized ABTS develops a blue color, and therefore, by visual observation or measurement of absorbance at 420 nm, the oxidase activity can be detected. In the measurement of the activity, the crude extract solution obtained by extraction from the wheat bran culture medium was used. Further, as the control, a reaction solution in which water was added in place of the substrate was also prepared in the same manner. After a reaction was allowed to proceed at room temperature, whether or not the color was developed was confirmed by visual observation, and the crude extract solution added to the reaction solution in which the color was developed was determined to have an oxidase activity.
The measurement of the activity of the present enzyme was performed by measuring an increase in absorbance at 420 nm using the same peroxidase method as described above. The enzymatic reaction was initiated by adding D-mannitol, and the absorbance was measured over time for 10 minutes under the reaction conditions of 30° C. using a spectrophotometer U-2010 manufactured by Hitachi Co., Ltd. The reaction was performed by preparing the reaction solution so that the total amount thereof was 1 mL as shown in Table 11. “1 unit” was defined as the amount of the enzyme required to increase the absorbance at 420 nm by 1 for 1 minute.
Among the polyols used in the assay, the activity of the enzyme was high for D-arabitol, erythritol, D-mannitol, and D-sorbitol, which are listed in descending order of activity, and a high activity was not observed for the other polyols.

[2] = tested on: D-glucose oxidase of the C strain; experiment: Screening for oxidase activity, crude extract of C strain (peroxidase method, visual colour development); type: biochemical, Aspergillus niger (C strain); settings: substrate 0.5 M, room temperature
Description: Isolated microbial cells were inoculated into 5 mL of PDB, followed by shaking incubation at 28° C. for 1 week. In a 200-mL Erlenmeyer flask, 6 g of wheat bran and 15 mL of water were added and mixed with each other, and the resulting mixture was sterilized in an autoclave and used as a wheat bran culture medium. To the thus prepared wheat bran culture medium, the liquid-cultured microbial cells were added together with the total amount of the culture solution, and the resulting mixture was incubated at 28° C. After two-week incubation, an extract solution was prepared by a method described below and used for the measurement of the oxidase activity. […]
In primary screening, a sugar mixed solution and an amino acid mixed solution were used in consideration of efficiency. The crude extract solution in which the activity was detected by the primary screening was subjected to secondary screening using the respective substrates individually at 0.5 M, and the substrate was specified. […]
In this method, the activity is measured by colorimetric determination of hydrogen peroxide generated by an oxidation reaction. […] The oxidized ABTS develops a blue color, and therefore, by visual observation or measurement of absorbance at 420 nm, the oxidase activity can be detected. […]

[3] = tested on: polyol oxidase of the A strain; experiment: Screening for oxidase activity, crude extract of A strain (peroxidase method, visual colour development); type: biochemical, Penicillium sp. KU-1 (A strain); settings: substrate 0.5 M, room temperature
Description: (§1) Isolated microbial cells were inoculated into 5 mL of PDB, followed by shaking incubation at 28° C. for 1 week. In a 200-mL Erlenmeyer flask, 6 g of wheat bran and 15 mL of water were added and mixed with each other, and the resulting mixture was sterilized in an autoclave and used as a wheat bran culture medium. To the thus prepared wheat bran culture medium, the liquid-cultured microbial cells were added together with the total amount of the culture solution, and the resulting mixture was incubated at 28° C. After two-week incubation, an extract solution was prepared by a method described below and used for the measurement of the oxidase activity.
(§2) To the wheat bran culture medium in which the microbial cells were grown, 20 mL of a 10 mM potassium phosphate buffer (pH 7.0) was added, and the cells were well immersed therein and left to stand on ice for 1 hour, and then, the mixture was squeezed with a gauze pad. Thereafter, centrifugation was performed at 4° C. and 12,000 rpm for 18 minutes to remove fine particles, and the resulting solution was used as a crude extract solution.
(§3) In primary screening, a sugar mixed solution and an amino acid mixed solution were used in consideration of efficiency. The crude extract solution in which the activity was detected by the primary screening was subjected to secondary screening using the respective substrates individually at 0.5 M, and the substrate was specified.
(§4) As the measurement method for the oxidase activity, a peroxidase method was used. […]
(§5) In this method, the activity is measured by colorimetric determination of hydrogen peroxide generated by an oxidation reaction. […] The oxidized ABTS develops a blue color, and therefore, by visual observation or measurement of absorbance at 420 nm, the oxidase activity can be detected. […] After a reaction was allowed to proceed at room temperature, whether or not the color was developed was confirmed by visual observation, and the crude extract solution added to the reaction solution in which the color was developed was determined to have an oxidase activity.

[4] = tested on: polyol oxidase of the B strain; experiment: Screening for oxidase activity, crude extract of B strain (peroxidase method, visual colour development); type: biochemical, B strain (filamentous fungus); settings: substrate 0.5 M, room temperature
Description: as §1, §2, §3, §4, §5

activity of the enzyme for the polyol (in words) [1]	Relative activity (%) [1] [%]	reactivity as a substrate of the D-glucose oxidase of the C strain [2]	Structure (SMILES)	reactivity as a substrate of the oxidase of the A strain [3]	reactivity as a substrate of the enzyme of the B strain [4]
high	100		OC[C@@H](O)C(O)[C@H](O)CO [D-arabitol]		
high	80.5		OC[C@@H](O)[C@@H](O)CO [Erythritol]		
low	0.3		OC[C@@H](O)[C@H](O)[C@H](O)[C@H](O)CO [D-talitol]		
		high substrate specificity for D-glucose	O=C[C@H](O)[C@@H](O)[C@H](O)[C@H](O)CO [D-glucose]		
low			OC[C@@H](O)[C@@H](O)[C@@H](O)CO [Ribitol]		
	0.18		OCC(O)CO [Glycerol]		
	1.2		OC[C@@H](O)[C@H](O)[C@@H](O)CO [Xylitol]		
	0.3		OC[C@H](O)[C@H](O)[C@H](O)[C@@H](O)CO [L-talitol]		

Structure (SMILES)	activity of the enzyme for the polyol (in words) [1]	Relative activity (%) [1] [%]	reactivity as a substrate of the D-glucose oxidase of the C strain [2]	reactivity as a substrate of the oxidase of the A strain [3]	reactivity as a substrate of the enzyme of the B strain [4]
OC[C@@H](O)[C@@H](O)[C@H](O)[C@H](O)CO [D-mannitol]	high	79.0		uses D-sorbitol and D-mannitol as a substrate	uses all of D-sorbitol, D-mannitol, and allitol as a substrate
OC[C@@H](O)[C@@H](O)[C@@H](O)[C@@H](O)CO [Allitol]	low	0.45		does not show reactivity	uses all of D-sorbitol, D-mannitol, and allitol as a substrate
OC[C@@H](O)[C@@H](O)[C@H](O)[C@@H](O)CO [D-sorbitol]	high	36.7		uses D-sorbitol and D-mannitol as a substrate	uses all of D-sorbitol, D-mannitol, and allitol as a substrate
